# In patent US5304367A, “In vivo brain imaging agent and method for diagnosis of psychiatric disorders” (New York University, priority 1990, dated 1994):
# Assays:
# [1] = whole body distribution, female BALB/c mice, 500 μCi/kg; assay type: in vivo, mouse (BALB/c)
# [2] = whole body distribution, mice, 2 μCi; assay type: in vivo, mouse
# Description: In a subsequent study, whole body distribution was examined in mice following tail vein injection of 2 μCi ^125 I-iodopindolol. Animals were sacrificed at various time points up to 22 hours post-injection. Percent injected dose (%ID) was determined in 11 organs, blood and urine. At one minute, lungs contained the highest %ID (17%), heart 3-4 %ID and brain 0.3%ID.
smiles,measurement,setting,value
CC(C)NCC(O)COc1cccc2[nH]cc([125I])c12 (stereo not drawn) [^125 I-iodopindolol],brain levels relative to blood levels (mCi per gram of brain / mCi per ml blood),[1]; 1 minute post-injection,about 1/5
same,"brain levels, injected dose",[1]; 1 minute post-injection,less than 1 % of injected dose
same,urine levels,[1]; 1 minute post-injection,below the threshold of detection
same,highest concentrations of radioactivity (counts/gram of tissue),"[1]; 1 minute post-injection, 500 μCi/kg i.v.","in the lungs, followed by heart and other organs"
same,receptor occupancy,"[1]; 120 min, based on Bmax of approximately 2 pmole/gram brain",less than 1%
same,Bmax used for receptor occupancy,[1]; extrapolated from rat and human values,approximately 2 pmole/gram brain
same,"brain levels, total injected dose",[1]; two hours later (120 min),0.06 % of total injected dose
same,"highest activity, order of organs",[1]; two hours later (120 min),"highest activity was found in urine, followed by lung, heart and brain"
same,radioactivity in all organs,[2]; between 2-4 hours post-injection,fell in all organs
same,"brain, percent injected dose (%ID)","[2]; one minute, 2 μCi tail vein",0.3 %ID
same,"heart, percent injected dose (%ID)","[2]; one minute, 2 μCi tail vein",3-4 %ID
same,"lungs, percent injected dose (%ID)","[2]; one minute, 2 μCi tail vein",17 %ID
same,"brain levels, time course",[2]; until two hours post-injection,remained stable until two hours post-injection
same,lung radioactivity,[2]; until two hours post-injection,declined
same,stomach and intestine radioactivity,[2]; until two hours post-injection,increased
